{
  "source": "patent US11324786B2",
  "about": "“Lactic acid bacteria and use thereof” (priority 2017, dated 2022)",
  "type_in_all_cases": "in vivo, mouse",
  "key": {"colitis animal model": {"test_system": "colitis animal model", "assay": "TNBS colitis animal model: weight change, colon length, toxicity", "conditions": "TNBS colitis mice; oral once daily for 3 days; lactic acid bacteria 1×10^9 CFU, sulfasalazine 50 mg/kg", "quoted_text": "One group was used as a normal group, and the other group was treated with 2,4,6-trinitrobenzenesulfonic acid (TNBS) to induce colitis. Specifically, after test animals were anesthetized with ether, 0.1 ml of TNBS solution mixed with 50% ethanol was injected into the large intestine through the anus using a 1 ml syringe with a round tip, and the test animals were raised up vertically for 30 seconds to cause inflammation. Meanwhile, 0.1 ml of physiological saline was orally administered to the normal group. […] The next day when the lactic acid bacteria administration was finished, the test animal was sacrificed, and a portion of the colon from a cecum to a site immediately before the anus was removed and then a length thereof was measured. Then, various following indicators were identified based on the length. On the other hand, 1% dextrose solution as a suspension of lactic acid bacteria instead of the novel lactic acid bacteria was administered orally to the test animals in the normal group. Further, a test animal of a positive control group was orally treated with a colitis treatment drug sulfasalazine in an amount of 50 mg/kg instead of the novel lactic acid bacteria."}, "COX-2": {"test_system": "COX-2", "assay": "Colitis animal model: COX-2 in colon", "conditions": "colon tissue, TNBS colitis mice; oral once daily for 3 days; lactic acid bacteria 1×10^9 CFU, sulfasalazine 50 mg/kg", "description": "(§1) 6 C57BL/6 mice (male, 21 to 23 g, 6 weeks old) formed one group which was adapted to a test room for 1 week. One group was used as a normal group, and the other group was treated with 2,4,6-trinitrobenzenesulfonic acid (TNBS) to induce colitis. Specifically, after test animals were anesthetized with ether, 0.1 ml of TNBS solution mixed with 50% ethanol was injected into the large intestine through the anus using a 1 ml syringe with a round tip, and the test animals were raised up vertically for 30 seconds to cause inflammation. Meanwhile, 0.1 ml of physiological saline was orally administered to the normal group. After the administration, the novel lactic acid bacterium Lactobacillus mucosae NK41, Bifidobacterium longum NK46 or a 1:1 mixture thereof was suspended in physiological saline which in turn was orally administered thereto in an amount of 1×10^9 CFU once daily for 3 days from a next day. The next day when the lactic acid bacteria administration was finished, the test animal was sacrificed, and a portion of the colon from a cecum to a site immediately before the anus was removed and then a length thereof was measured. […]\n(§2) Western blotting methods were used to measure inflammatory response indicator materials, such as p-p65, p65, COX-2 and IL-17. […] Further, the expression level of cytokines thereof was measured using an ELISA kit."}, "myeloperoxidase (MPO)": {"test_system": "myeloperoxidase (MPO)", "assay": "Colitis animal model: myeloperoxidase activity in colon tissue", "conditions": "TNBS colitis mice, oral once daily for 3 days, lactic acid bacteria 1×10^9 CFU, sulfasalazine 50 mg/kg", "description": "as §1, with “After the administration, the novel lactic acid bacterium Lactobacillus mucosae NK41, Bifidobacterium longum NK46 or a 1:1 mixture thereof was suspended in physiological saline which in turn was orally administered thereto in an amount of 1×10^9 CFU once daily for 3 days from a next day.” left out\n200 μl of 10 mM potassium phosphate buffer (pH 7.0) containing 0.5% hexadecyl trimethyl ammonium bromide was added to 100 mg of colon tissue, and was homogenized. […] 50 μl of the supernatant was added to 0.95 ml of a reaction solution (containing 1.6 mM tetramethyl benzidine and 0.1 mM H2O2) and the absorbance was measured over time at 650 nm while reacting at 37° C. The activity of myeloperoxidase (MPO) was calculated while 1 μmol/ml of H2O2 generated as a reactant was defined as one unit."}, "TNF-α": {"test_system": "TNF-α", "assay": "Colitis animal model: TNF-α in colon", "conditions": "colon tissue, TNBS colitis mice; oral once daily for 3 days; lactic acid bacteria 1×10^9 CFU", "description": "as §1, §2"}, "IL-17": {"test_system": "IL-17", "assay": "Colitis animal model: IL-17 in colon", "conditions": "colon tissue, TNBS colitis mice; oral once daily for 3 days; lactic acid bacteria 1×10^9 CFU, sulfasalazine 50 mg/kg", "description": "as §1, §2"}},
  "data": [
    {"smiles": "O=C(O)c1cc(/N=N/c2ccc(S(=O)(=O)Nc3ccccn3)cc2)ccc1O", "note": "[Positive group, sulfasalazine]", "values": [
      {"measurement": "Colon length", "setting": "colitis animal model", "value": 4.7, "unit": "cm"},
      {"measurement": "Weight change", "setting": "colitis animal model", "value": -0.54, "unit": "g"},
      {"measurement": "COX-2 activity", "setting": "COX-2", "value": 0.41},
      {"measurement": "MPO activity", "setting": "myeloperoxidase (MPO)", "value": 0.98, "unit": "μU/mg"},
      {"measurement": "TNF-α", "setting": "TNF-α", "value": 75, "unit": "pg/mg"},
      {"measurement": "IL-17", "setting": "IL-17", "value": 41, "unit": "pg/mg"}
    ]}
  ]
}
